Results taken from patent US20020160008A1, “TREATMENT OF DIABETES” (priority 1994, published 2002).
“Also recorded” adds a separate entry of the source.

Assays:
[1] = 50 μg GLIP plus 5 units insulin (half the usual dose) subcutaneously before Sustacal meal; one subject; FIG. 6 Panel A
Excerpt: One Type 1 diabetic subject was given GLIP along with insulin and the effects on post-prandial glycaemia observed. […] Blood levels of GLIP were monitored by a standard radioimmunoassay method.

[2] = Sustacal meal preceded by subcutaneous GLIP injection in Type I diabetic subjects (Example 5); format: in vivo, human; settings: Type I diabetics, 100 μg GLIP subcutaneously before Sustacal meal
Excerpt: 7 Type I diabetic subjects were studied.

[3] = Sustacal meal with intravenous GLIP infusion 1.2 pm/kg/min in remission phase Type I diabetes (Example 1); format: in vivo, human; settings: IV GLIP 1.2 pm/kg/min for 120 min after Sustacal meal
Experimental: 7 subjects with remission phase Type I diabetes were studied after ingestion of a standardised meal of Sustacal (Upjohn) (delivering […]). Subjects continued their normal insulin treatment programme on the day prior to the test and, on the day of the test, omitted their morning insulin injection and arrived fasting at 8:00 am. […] Infusion was continued for 120 minutes. Blood levels of glucose, C-peptide, gastrin, glucagon and HPP were monitored by standard radioimmunoassay methods in samples taken before and at intervals during the study, up to 180 minutes. On another test day, subjects were given the Sustacal meal alone and the same analytes were similarly monitored.

[4] = Sustacal meal preceded by subcutaneous GLIP injection in normal volunteers (Example 4); format: in vivo, human; settings: for delay in increase in blood levels of glucose, HPP, C-peptide and insulin: compared with the first dose
Experimental: 7 normal volunteers were studied after ingestion of a Sustacal meal either alone or immediately preceded by a subcutaneous injection of 1.00 μg GLIP.

[5] = Intravenous glucose infusion with intravenous GLIP in remission phase Type I diabetes (Example 2); format: in vivo, human; settings: IV GLIP 1.2 pm/kg/min for 60 min with IV glucose 20 g over 60 min, FIG. 2
Experimental: Four subjects with remission phase Type I diabetes were studied during intravenous glucose infusion. Subjects prepared for the tests as described in Example 1, but received an intravenous infusion of glucose (20 g over 60 min. constant rate)instead of the Sustacal meal. […] Blood levels of glucose and C-peptide were monitored as in Example 1.

[6] = Sustacal meal with GLIP infusion 0.75 pm/kg/min in remission phase Type I diabetes (Example 3); format: in vivo, human; settings: GLIP 0.75 pmol/kg/min for 120 min with Sustacal meal, versus saline infusion; FIG. 3
Experimental: The test was conducted as described in Example 1 and blood glucose and C-peptide levels were measured. On a further test day, the subjects were studied during saline infusion after a similar Sustacal meal.

Glucagon-like peptide 1(7-36)amide [GLIP]
blood glucose after standard meal (maximum) [1]: ≤ 8 mM | blood glucose levels compared to control ([2]; no morning insulin, FIG. 5 Panel A): lowering of blood glucose levels | pancreatic polypeptide (HPP) levels ([2]; FIG. 5 Panel D): delayed rise in pancreatic polypeptide (HPP) levels | insulin secretion (C-peptide, insulin) ([2]; FIG. 5 Panels B and C): no enhancement of insulin secretion over control levels | blood levels of C-peptide [3]: prevented a significant increase in blood levels of C-peptide | plasma glucagon levels stimulated by the meal [3]: prevented the mean rise in plasma glucagon levels | control of blood glucose level after a meal ([3]; FIG. 1 Panel A): excellent control of blood glucose level | pancreatic polypeptide (PP) response to meal ([3]; FIG. 1 Panel C): this response was absent during GLIP infusion | gastrin response / gastrin levels ([3]; FIG. 1 Panel E): normal gastrin response; also recorded: not significantly affected | delay in increase in blood levels of glucose, HPP, C-peptide and insulin ([4]; 50 μg GLIP): proportionally shorter | delay in increase in blood levels of glucose, HPP, C-peptide and insulin ([4]; 200 μg GLIP): longer delays | increase in blood levels of glucose, HPP, C-peptide and insulin ([4]; subcutaneous GLIP (1.00 μg as printed elsewhere in the source) before Sustacal meal, FIG. 4): A delay in increase | control of blood glucose level [5]: improved control of blood glucose level | secretion of endogenous insulin [5]: stimulated secretion of endogenous insulin | C-peptide after meal [6]: rise in C-peptide was similar to the control experiment | blood glucose after meal [6]: increase in glucose was less than in the control experiment
